In brackets after ≈: the same amount, converted by molar mass. Where two headings read alike, the source gives them in different places.
Columns and labels:
[1] = test system: Bordetella bronchiseptica; format: cell-based; settings: Veterinary organism Bordetella bronchiseptica; agar-dilution
Protocol: (§1) The A80915 antibiotics inhibit the growth of bacteria which are pathogenic to animal life. […] The MIC's in Table III were determined by conventional agar-dilution assays.

Escherichia coli = format: cell-based; settings: Veterinary organism Escherichia coli; agar-dilution
Protocol: as §1

Gram-negative = format: cell-based; settings: agar-dilution
Protocol: as §1

Mycoplasma gallisepticum = format: cell-based; settings: Mycoplasmoides gallisepticum; Veterinary organism Mycoplasma gallisepticum; agar-dilution
Protocol: as §1

Mycoplasma hyopneumoniae = format: cell-based; settings: Mesomycoplasma hyopneumoniae; Veterinary organism Mycoplasma hyopneumoniae; agar-dilution
Protocol: as §1

Pasteurella hemolytica = format: cell-based; settings: Veterinary organism Pasteurella hemolytica; agar-dilution
Protocol: as §1

Pasteurella multocida = format: cell-based; settings: Veterinary organism Pasteurella multocida; agar-dilution
Protocol: as §1

Salmonella typhimurium = format: cell-based; settings: Salmonella enterica; Veterinary organism Salmonella typhimurium; agar-dilution
Protocol: as §1

[2] = test system: Staphylococcus aureus V41; format: cell-based; settings: Staphylococcus aureus V41; agar-dilution; read-out: MIC
Protocol: as §1

[3] = test system: Staphylococcus aureus X1.1; format: cell-based; settings: Staphylococcus aureus X1.1; agar-dilution; read-out: MIC
Protocol: as §1

[4] = test system: Staphylococcus aureus X400; format: cell-based; settings: Staphylococcus aureus X400; agar-dilution; read-out: MIC
Protocol: as §1

[5] = test system: Staphylococcus epidermis 222; format: cell-based; settings: Staphylococcus epidermis 222; agar-dilution; read-out: MIC
Protocol: as §1

[6] = test system: Staphylococcus epidermis EPI1; format: cell-based; settings: Staphylococcus epidermis EPI1; agar-dilution; read-out: MIC
Protocol: as §1

Staphylococcus sp. = format: cell-based; settings: Veterinary organism Staphylococcus sp.; agar-dilution
Protocol: as §1

[7] = test system: Streptococcus faecium 2041; format: cell-based; settings: Enterococcus faecium; Streptococcus faecium 2041; agar-dilution; read-out: MIC
Protocol: as §1

[8] = test system: Streptococcus faecium X66; format: cell-based; settings: Enterococcus faecium; Streptococcus faecium X66; agar-dilution; read-out: MIC
Protocol: as §1

[9] = test system: Streptococcus pneumoniae Park1; format: cell-based
Protocol: as §1

[10] = test system: Streptococcus pyogenes C203; format: cell-based; settings: Streptococcus pyogenes C203; agar-dilution; read-out: MIC
Protocol: as §1

Streptococcus sp. = format: cell-based; settings: Veterinary organism Streptococcus sp.; agar-dilution
Protocol: as §1

[11] = test system: Clostridium difficile 2994; experiment: Susceptibility of anaerobic bacterial isolates (MIC), agar-dilution; format: cell-based
[12] = test system: Clostridium perfringens 81; experiment: microbe, parasite or virus in culture; format: cell-based; settings: Clostridium perfringens, 81, 24 h
[13] = test system: Clostridium septicum 1128; experiment: Susceptibility of anaerobic bacterial isolates (MIC), agar-dilution; format: cell-based; settings: 24-hour incubation
Protocol: The A80915 antibiotics also are active against anaerobic bacteria. […] End points were read after 24-hour incubation.

[14] = test system: Eubacterium aerofaciens 1235; experiment: as above; format: cell-based
[15] = test system: Peptococcus asaccharolyticus 1302; experiment: as above; format: cell-based; settings: Peptoniphilus asaccharolyticus, 1302, 24 h
Peptococcus prevoti 1281 = experiment: as above; format: cell-based
[16] = test system: Peptostreptococcus anaerobius 1428; experiment: as above; format: cell-based
[17] = test system: Peptostreptococcus intermedius 1264; experiment: as above; format: cell-based
[18] = test system: Propionibacterium acnes 79; experiment: as above; format: cell-based
Bacteriodes fragilis 111 = experiment: as above; format: cell-based
[19] = test system: Bacteriodes fragilis 1877; experiment: as above; format: cell-based
[20] = test system: Bacteriodes fragilis 1936B; experiment: as above; format: cell-based
[21] = test system: Bacteriodes thetaiotaomicron 1438; experiment: as above; format: cell-based
[22] = test system: Bacteriodes melaninogenicus 1856/28; experiment: as above; format: cell-based
[23] = test system: Bacteriodes melaninogenicus 2736; experiment: as above; format: cell-based
[24] = test system: Bacteriodes vulgatis 1211; experiment: as above; format: cell-based
[25] = test system: Bacteriodes corrodens 1874; experiment: as above; format: cell-based
[26] = test system: Fusobacterium symbiosum 1470; experiment: as above; format: cell-based
[27] = test system: Fusobacterium necrophorum 6054A; experiment: as above; format: cell-based
Trichomonas vaginalis = experiment: Anti-protozoan activity (MIC); format: cell-based
Trichomonas foetus = experiment: Anti-protozoan activity (MIC); format: cell-based; settings: Tritrichomonas foetus
Candida albicans = experiment: Anti-fungal activity (MIC); format: cell-based
[28] = Acute toxicity in mice, intraperitoneal injection; settings: mouse, in vivo, ip
Description: The acute toxicity of the A80915 antibiotics in mice, when administered by intraperitoneal injection and expressed as LD50, is shown in Table V.

[29] = Spontaneous loss of nitrogen on standing in solvent; format: physicochemical; settings: standing at room temperature in a solvent such as methanol, ethanol or water
Description: Loss of nitrogen is accelerated by, for example, heating or the addition of salts or mild reducing agents such as sodium hyposulfite, and the like.

Compound: C=C1CCC(Cl)C(C)(C)C1CC12OC(C)(C)C(Cl)CC1(Cl)C(=O)c1c(O)c(C)c([O-])c([N+]#N)c1C2=O (centres unmarked) [A80915B]
- MIC [1]: > 50 mg/L
- MIC (Escherichia coli): > 50 mg/L
- MIC (Gram-negative): > 128 mg/L
- MIC (Mycoplasma gallisepticum): 0.1 mg/L (≈ 0.18 µM)
- MIC (Mycoplasma hyopneumoniae): 3.12 mg/L (≈ 5.61 µM)
- MIC (Pasteurella hemolytica): 12.5 mg/L (≈ 22.5 µM)
- MIC (Pasteurella multocida): 0.2 mg/L (≈ 0.36 µM)
- MIC (Salmonella typhimurium): > 50 mg/L
- MIC [2]: 2 mg/L (≈ 3.6 µM)
- MIC [3]: 2 mg/L (≈ 3.6 µM)
- MIC [4]: 2 mg/L (≈ 3.6 µM)
- MIC [5]: 2 mg/L (≈ 3.6 µM)
- MIC [6]: 2 mg/L (≈ 3.6 µM)
- MIC (Staphylococcus sp.): < 0.05 mg/L
- MIC [7]: 8 mg/L (≈ 14.4 µM)
- MIC [8]: 8 mg/L (≈ 14.4 µM)
- MIC ([9]; Streptococcus pneumoniae, PARK1): 8 mg/L (≈ 14.4 µM)
- MIC [10]: 8 mg/L (≈ 14.4 µM)
- MIC (Streptococcus sp.): 0.1 mg/L (≈ 0.18 µM)
- MIC ([11]; Clostridioides difficile, 2994, 24 h): > 128 mg/L
- MIC [12]: > 128 mg/L
- MIC [13]: > 128 mg/L
- MIC ([14]; Collinsella aerofaciens, 1235, 24 h): > 128 mg/L
- MIC [15]: 128 mg/L (≈ 230 µM)
- MIC (Peptococcus prevoti 1281; 24 h): 64 mg/L (≈ 115 µM)
- MIC ([16]; Peptostreptococcus anaerobius, 1428, 24 h): > 128 mg/L
- MIC ([17]; Peptostreptococcus, 1264, 24 h): 128 mg/L (≈ 230 µM)
- MIC ([18]; Cutibacterium acnes, 79, 24 h): 128 mg/L (≈ 230 µM)
- MIC (Bacteriodes fragilis 111; 24 h): > 128 mg/L
- MIC ([19]; 24 h): > 128 mg/L
- MIC ([20]; 24 h): > 128 mg/L
- MIC ([21]; 24 h): > 128 mg/L
- MIC ([22]; 24 h): 128 mg/L (≈ 230 µM)
- MIC ([23]; 24 h): > 128 mg/L
- MIC ([24]; 24 h): > 128 mg/L
- MIC ([25]; 24 h): > 128 mg/L
- MIC ([26]; Fusobacterium, 1470, 24 h): > 128 mg/L
- MIC ([27]; Fusobacterium necrophorum, 6054A, 24 h): > 128 mg/L
- MIC (Trichomonas vaginalis): 6.25 mg/L (≈ 11.2 µM)
- MIC (Trichomonas foetus): 12.5 mg/L (≈ 22.5 µM)
- MIC (Candida albicans): 5 mg/L (≈ 8.99 µM)
- LD50 [28]: 75 mg/kg
- loss of nitrogen (stability) [29]: spontaneously lose nitrogen

Compound: Cc1c([O-])c([N+]#N)c2c(c1O)C(=O)[C@@]1(Cl)C[C@@H](Cl)C(C)(C)O[C@@]1(C[C@H]1C(C)(C)[C@@H](Cl)CC[C@]1(C)O)C2=O [A80915D]
- MIC [1]: > 50 mg/L
- MIC (Escherichia coli): > 50 mg/L
- MIC (Gram-negative): > 128 mg/L
- MIC (Mycoplasma gallisepticum): > 50 mg/L
- MIC (Mycoplasma hyopneumoniae): 25 mg/L (≈ 43.6 µM)
- MIC (Pasteurella hemolytica): 12.5 mg/L (≈ 21.8 µM)
- MIC (Pasteurella multocida): 3.12 mg/L (≈ 5.44 µM)
- MIC (Salmonella typhimurium): > 50 mg/L
- MIC [2]: 2 mg/L (≈ 3.48 µM)
- MIC [3]: 1 mg/L (≈ 1.74 µM)
- MIC [4]: 2 mg/L (≈ 3.48 µM)
- MIC [5]: 1 mg/L (≈ 1.74 µM)
- MIC [6]: 2 mg/L (≈ 3.48 µM)
- MIC (Staphylococcus sp.): 0.2 mg/L (≈ 0.348 µM)
- MIC [7]: 32 mg/L (≈ 55.8 µM)
- MIC [8]: 32 mg/L (≈ 55.8 µM)
- MIC ([9]; Streptococcus pneumoniae Park1, agar-dilution, read-out: MIC): 1 mg/L (≈ 1.74 µM)
- MIC [10]: 2 mg/L (≈ 3.48 µM)
- MIC (Streptococcus sp.): 3.12 mg/L (≈ 5.44 µM)
- MIC ([11]; Clostridioides difficile, Clostridium difficile 2994, agar-dilution, 24-hour incubation, read-out: MIC): 16 mg/L (≈ 27.9 µM)
- MIC [12]: 16 mg/L (≈ 27.9 µM)
- MIC [13]: 16 mg/L (≈ 27.9 µM)
- MIC ([14]; Collinsella aerofaciens, Eubacterium aerofaciens 1235, agar-dilution, 24-hour incubation, read-out: MIC): 16 mg/L (≈ 27.9 µM)
- MIC [15]: 4 mg/L (≈ 6.97 µM)
- MIC (Peptococcus prevoti 1281; Peptococcus prevoti 1281, agar-dilution, 24-hour incubation, read-out: MIC): 8 mg/L (≈ 13.9 µM)
- MIC ([16]; Peptostreptococcus anaerobius 1428, agar-dilution, 24-hour incubation, read-out: MIC): 8 mg/L (≈ 13.9 µM)
- MIC ([17]; Peptostreptococcus intermedius 1264, agar-dilution, 24-hour incubation, read-out: MIC): 128 mg/L (≈ 223 µM)
- MIC ([18]; Cutibacterium acnes, Propionibacterium acnes 79, agar-dilution, 24-hour incubation, read-out: MIC): 16 mg/L (≈ 27.9 µM)
- MIC (Bacteriodes fragilis 111; Bacteriodes fragilis 111, agar-dilution, 24-hour incubation, read-out: MIC): 16 mg/L (≈ 27.9 µM)
- MIC ([19]; Bacteriodes fragilis 1877, agar-dilution, 24-hour incubation, read-out: MIC): 16 mg/L (≈ 27.9 µM)
- MIC ([20]; Bacteriodes fragilis 1936B, agar-dilution, 24-hour incubation, read-out: MIC): 8 mg/L (≈ 13.9 µM)
- MIC ([21]; Bacteriodes thetaiotaomicron 1438, agar-dilution, 24-hour incubation, read-out: MIC): > 128 mg/L
- MIC ([22]; Bacteriodes melaninogenicus 1856/28, agar-dilution, 24-hour incubation, read-out: MIC): 32 mg/L (≈ 55.8 µM)
- MIC ([23]; Bacteriodes melaninogenicus 2736, agar-dilution, 24-hour incubation, read-out: MIC): > 128 mg/L
- MIC ([24]; Bacteriodes vulgatis 1211, agar-dilution, 24-hour incubation, read-out: MIC): > 128 mg/L
- MIC ([25]; Bacteriodes corrodens 1874, agar-dilution, 24-hour incubation, read-out: MIC): > 128 mg/L
- MIC ([26]; Fusobacterium symbiosum 1470, agar-dilution, 24-hour incubation, read-out: MIC): > 128 mg/L
- MIC ([27]; Fusobacterium necrophorum 6054A, agar-dilution, 24-hour incubation, read-out: MIC): 8 mg/L (≈ 13.9 µM)
- MIC (Trichomonas vaginalis): 25 mg/L (≈ 43.6 µM)
- MIC (Trichomonas foetus): 25 mg/L (≈ 43.6 µM)
- MIC (Candida albicans): 10 mg/L (≈ 17.4 µM)
- LD50 [28]: 11.8 mg/kg
- loss of nitrogen (stability) [29]: spontaneously lose nitrogen

Reference: patent US4904590A, “Antibiotic A80915 and process for its production” (Eli Lilly and Company, priority 1988, dated 1990)
